Experimental findings from patent publication US12090158B2, “Medicine for diabetic peripheral neuropathy” (NIPPON CHEMIPHAR CO., LTD., priority 2018, dated 2024) are described below.

One data set relates to rats (SD, male). Nature of the data set: Rota-rod test, effect on motor coordination. The format is in vivo, rat. Conditions: 60 mg/kg oral once, three hours after administration; for walking duration (time to fall from the rod): 10 rpm, cut-off 120 seconds. Here is the method:
As an index for studying a central inhibitory effect and a muscle relaxation effect, an effect on motor coordination was studied using a Rota-rod test.
In each of the groups, the number of samples was 8. Before a test, a rotation speed was set to 10 rpm using a mark on a rotating disk of Rota-rod (47700, UGO BASILE S.R.L.). A rat was gently placed on the rotating rod, and it was confirmed that the rat was placed on the rod stably. Thereafter, time (seconds) for the rat to fall from the rod was recorded. A cut-off value was 120 seconds. Trials were performed before administration of a test substance and three hours after the administration. At each measurement time, trials were performed up to three times. In a case where the cut-off value was reached, 120 seconds was taken as a walking duration at the time. In a case where the cut-off value was not reached in all three trials, an average of the three values was taken as a walking duration at the time.
In general terms: Falling from the rotarod earlier than controls is read as motor impairment.

Data set [1] relates to STZ-induced diabetic neuropathy model rat. The data set can be described thus: STZ-induced diabetic neuropathy model rat, von Frey up-down stimulation method, 50% escape response threshold. The format is in vivo. Conditions: oral, compared with STZ control group. As to the method: As one embodiment, the study was performed by administering the compound of the present invention to an STZ-induced diabetic neuropathy model rat, then giving a stimulus thereto by an up-down stimulation method, and calculating a 50% escape response threshold.
A model was prepared by intravenously administering STZ as a diabetes-inducing substance to a rat. In a test, an animal that had developed diabetic neuropathy 35 days after STZ administration was used.
On the day before administration of STZ and the day before administration of a test substance, about 100 μL of blood was collected from the tail vein using a winged injection needle equipped with a heparin-treated capillary. The obtained blood was centrifuged with a centrifuge [centrifugation conditions: 4° C., 3,000 rpm (×2,150 g), 15 min], and then plasma was obtained. The blood glucose level of the obtained plasma was measured using a hexokinase G-6-PDH method using an automatic biochemical analyzer. Note that the amount of the obtained plasma was very small, and therefore the measurement was performed by diluting the plasma 5 times with physiological saline. […]
35 days after administration of STZ, before administration, a 50% escape response threshold was measured, and the animals were divided into groups each including two animals such that the groups had the same average of escape response thresholds and the same average of body weights (severity of 50% escape response threshold: 8, severity of weight: 2). […]
Pain was evaluated during a pre-breeding period, and 35 days after administration of STZ, before administration of a test substance and one, two, four, and six hours after administration of the test substance. […] From the result, a 50% escape response threshold was calculated by the following method for calculating a 50% escape response threshold (the 50% escape response threshold was rounded off to two decimal places). […]

On to `CC(C)C[C@H](CN)CC(=O)O` [pregabalin, reference compound], for which the “walking duration (time to fall from the rod)” value in the data set with rats (SD, male) is 22 ± 5 s.

`O=C1CC(=O)N(c2ccc(NC(=O)c3ccccc3I)cc2)c2ccc3ccccc3c2N1` [Example 48 (Compound), 5-[4-(2-iodobenzoylamino)phenyl]-1H-naphtho [1,2-b] [1,4]diazepine-2,4 (3H,5H)-dione]: the “effect on motor coordination” value in the data set on rats (SD, male) (Rota-rod) was “no effect on motor coordination”. In addition, the “walking duration (time to fall from the rod)” value in the data set on rats (SD, male) is 120 s. The “50% escape response threshold” value is on record as “significantly increased” in data set [1] (3 mg/mL group, two hours and four hours after administration); “significantly increased” in data set [1] (10 mg/mL group, one hour to four hours after administration); “significantly increased” in data set [1] (30 mg/mL group, one hour to four hours after administration).
